The target in assay [1] is T1, thymidine phosphorylase obtained from human placenta (Homo sapiens, UniProt P19971).
T1 construct: thymidine phosphorylase obtained from human placenta in a highly purified form; from tissue; host or cells: human placenta
T1 sequence (P19971 11-482): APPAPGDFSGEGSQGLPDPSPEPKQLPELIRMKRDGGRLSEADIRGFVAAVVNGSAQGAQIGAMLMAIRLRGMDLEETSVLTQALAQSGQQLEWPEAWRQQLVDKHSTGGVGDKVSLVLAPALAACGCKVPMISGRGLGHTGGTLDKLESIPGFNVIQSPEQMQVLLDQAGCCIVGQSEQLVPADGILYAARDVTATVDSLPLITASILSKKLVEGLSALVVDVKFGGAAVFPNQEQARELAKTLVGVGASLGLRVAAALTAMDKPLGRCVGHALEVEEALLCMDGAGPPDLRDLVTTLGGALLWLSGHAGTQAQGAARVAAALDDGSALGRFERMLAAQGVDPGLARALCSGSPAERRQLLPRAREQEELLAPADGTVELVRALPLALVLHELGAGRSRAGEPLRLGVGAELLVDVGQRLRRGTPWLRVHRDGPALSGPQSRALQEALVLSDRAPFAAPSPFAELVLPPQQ
Put plainly: Test 1 (Thymidine Phosphorylase Inhibiting Effects). Type of assay: biochemical.

Assay [2] deals with human colon cancer strain Co-3. The experiment in a line: Test 3 (Metastasis Inhibiting Effects on Liver Metastasis Model). Format: in vivo, SPF KSN-nu/nu male mouse; human colon cancer. The note with it: oral; for Number of metastasized mice: 6 courses (5 days on, 2 days off), control 4/6; for Metastasis inhibition rate (%): liver metastasis, 6 courses, vs control. The procedure: About 100 mm^3 of human colon cancer strain Co-3 were transplanted to the cecum of each SPF KSN-nu/nu male mouse (seven weeks old). Two weeks after the transplant, a primary carcinoma lesion was removed by surgically cutting off the cecum. […] The administration was conducted for 6 courses, each consisting of administration of 5 straight days followed by a suspension of administration for 2 days. To mice in a control, only 0.5% (w/v) hydroxypropyl methylcellulose solution was orally administered. On the day following the completion of the administration, each mouse was sacrificed and metastasis to the liver was determined based on autopsy.

Assay [3] deals with TMK-1 (human gastric cancer) cells. The experiment in a line: Test 2 (Effects of Life Prolongation on Liver Metastasis Model). To be noted: oral, everyday for 42 days; for Average # of survival time: control 63.4 days; for ILS (%) (increase of life span): vs control, 120 days observation. Type of assay: in vivo, BALB/c-nu/nu male mice; human gastric cancer cells. The procedure: Effects of life prolongation were assessed using a liver metastasis model system consisting of BALB/c-nu/nu male mice (seven weeks old) each of which had been transplanted in the spleen thereof with 1×10^6 cells/mouse of TMK-1 (human gastric cancer) cells.
Specific experimental procedures were carried out by modifying the method proposed by Morikawa et al. in Cancer Research, 48, 1943-1948 (1988). Described specifically, cells which had been cultured in vitro were collected with 0.25%(w/v) trypsin-0.2%(w/v) EDTA and were then washed with a physiological phosphate buffer. The cells were next counted, followed by dilution to 1×10^6 cells/50 μl. Under anesthetization with 30 mg/kg of "Nembutal", each of the mice was incised at its left abdominal region and the spleen was then pulled out. The cell suspension of 10^6 cells/50 μl which had been prepared above was injected in an amount of 50 μl into the spleen by a syringe fitted with a 28-gauge injection needle. After the mouse was left over for 2 minutes, the blood vessel to the spleen was tied at two positions by ligating clips, respectively, and the spleen was cut off. The excised abdominal region was closed with a suturing stapler. Compound No. 29 of the present invention, in a form dissolved in distilled water, was orally administered everyday for 42 days from the day following the transplant. Using the increase of life span (ILS%) of a control as a reference, an assessment was conducted by observing the mouse for 120 days after the transplant of the cells to confirm its survival. The increase of life span (ILS%) was calculated in accordance with the following formula. [formula]

[4] abbreviates: inhibition of [6-^3H]thymine formation from [6-^3H]thymidine, 37° C., 5 minutes, pH 7.4, read-out: IC50.

pIC50: −log10 of the molar value. Counter-ions that a name gives are not always drawn. Like-named read-outs stand apart in the source and are kept apart here.

Usually pIC50 stands for −log10 of the IC50, conventionally taken in molar units. Consider `N#Cc1ccc(O)[nH]c1=O` [3-Cyano-2,6-dihydroxypyridine, reference compound], for which the pIC50 in assay [1] (setting [4]) was 3.89.

`Cc1cn(COCCO)c(=O)[nH]c1=O` [Acyclothymidine, reference compound]: the pIC50 in assay [1] (setting [4]) was < 3.00.

Consider `O=c1[nH]c(CN2CCCC2)c(Cl)c(=O)[nH]1` [Compound 1, 5-chloro-6-(1-pyrrolidinylmethyl)uracil], for which the pIC50 in assay [1] (setting [4]) is 5.66.

For the compound `O=c1[nH]c(CN2CCCC2)c(Br)c(=O)[nH]1` [Compound 2, 5-bromo-6-(1-pyrrolidinylmethyl)uracil], the pIC50 in assay [1] (setting [4]) is 6.29.

Consider `O=c1[nH]c(CN2CCCC2)c(I)c(=O)[nH]1` [Compound 3], for which the negative logarithm of the IC50 (pIC50) in assay [1] (setting [4]) was 5.89.

With `O=c1[nH]c(CN2CCC2)c(Cl)c(=O)[nH]1` [Compound 6, 5-chloro-6-(1-azetidinylmethyl)uracil], the pIC50 in assay [1] (setting [4]) was 5.59.

With `Cn1ccn(Cc2[nH]c(=O)[nH]c(=O)c2Cl)c1=N` [Compound 20], the negative-log IC50 (pIC50) in assay [1] was 6.62.

For the compound `N=C1CCCN1Cc1[nH]c(=O)[nH]c(=O)c1Cl` [Compound 29, 5-chloro-6-(1-(2-iminopyrrolidinyl)-methyl)uracil hydrochloride], the entries for the “Number of metastasized mice” value in assay [2] (18.4 mg/kg/day) and in assay [2] (36.9 mg/kg/day) were 2/6 and 1/6, respectively. In addition, the results for the “Metastasis inhibition rate (%)” value in assay [2] (18.4 mg/kg/day) and in assay [2] (36.9 mg/kg/day) were 50% and 75%, respectively. Besides, the “Average # of survival time” value turned out to be 88.5 days in assay [3] (50 mg/kg/day, N = 8) and 90.8 days in assay [3] (100 mg/kg/day, N = 9). The results for the “ILS (%) (increase of life span)” value in assay [3] (50 mg/kg/day) and in assay [3] (100 mg/kg/day) were 39.6% and 43.2%, respectively.

As for `Cc1c(CN2CCCC2=N)[nH]c(=O)[nH]c1=O` [Compound 32], in assay [1], the pIC50 is 6.92.

The compound `N#Cc1c(CN2CCCC2=N)[nH]c(=O)[nH]c1=O` [Compound 33, 5-cyano-6-(1-(2-iminopyrrolidinyl)methyl)uracil] had a pIC50 in assay [1] of 7.77.

Turning to `CN1CCN(Cc2[nH]c(=O)[nH]c(=O)c2Cl)C1=N` [Compound 34], in assay [1], the pIC50 is 7.34.

`N=C1NCCN1Cc1[nH]c(=O)[nH]c(=O)c1Br` [Compound 48, 5-bromo-6-(1-(2-iminoimidazolidinyl)methyl) uracil] gave a pIC50 in assay [1] of 7.52.

On to `O=c1[nH]c(CN2C=NCC2)c(Cl)c(=O)[nH]1` [Compound 50, 5-chloro-6-(2-imidazolin-1-ylmethyl)-uracil hydrochloride], for which the pIC50 in assay [1] (setting [4]) is 5.92.

Consider `O=c1[nH]c(Cn2ccnc2)c(Cl)c(=O)[nH]1` [Compound 51, 5-chloro-6-(1-imidazolylmethyl)uracil hydrochloride], for which, in assay [1] (setting [4]), the pIC50 is 6.00.

As to `N#Cc1c(CSC(=N)N)[nH]c(=O)[nH]c1=O` [Compound 56, 2-(5-cyanouracil-6-ylmethyl)isothiourea hydrochloride], in assay [1] (setting [4]), the pIC50 was 7.00.

In the case of `CNC(=N)SCc1[nH]c(=O)[nH]c(=O)c1Cl` [Compound 57], the pIC50 in assay [1] (setting [4]) is 6.82.

`N=C(N)NCc1[nH]c(=O)[nH]c(=O)c1Cl` [Compound 68, 5-chloro-6-(1-guanidino)methyluracil hydrochloride]: the pIC50 in assay [1] (setting [4]) was 6.57.

Consider `CC(=N)NCc1[nH]c(=O)[nH]c(=O)c1Cl` [Compound 73, N-(5-chlorouracil-6-ylmethyl)-acetamidine hydrochloride], for which the pIC50 in assay [1] (setting [4]) was 5.82.
